Assay results as given in patent publication US11718622B2, “Heterocyclic adenosine receptor antagonists” (Exelixis, Inc., priority 2020, dated 2023).

Columns and labels:
[1] = molecular target: Adenosine A2a (ADORA2A) receptor (Homo sapiens (Human), UniProt P29274); experiment: ADORA2A Receptor Binding Assay; conditions: radioligand binding, membrane stock
Procedure, shortened: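 Test compounds incubated with A2a receptor membranes and a ³H-labelled radioligand for 2 hours at room temperature, then filtered through PEI-presoaked GF/C plates and washed. Filter-bound ³H counted by scintillation; % inhibition calculated from background-subtracted signal relative to high control.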

[2] = molecular target: Adenosine A2B (ADORA2B) receptor (Homo sapiens (Human), UniProt P29275); experiment: ADORA2B Receptor Binding Assay; conditions: radioligand binding, membrane stock
Sequence of Adenosine A2B (ADORA2B) receptor (P29275 whole entry): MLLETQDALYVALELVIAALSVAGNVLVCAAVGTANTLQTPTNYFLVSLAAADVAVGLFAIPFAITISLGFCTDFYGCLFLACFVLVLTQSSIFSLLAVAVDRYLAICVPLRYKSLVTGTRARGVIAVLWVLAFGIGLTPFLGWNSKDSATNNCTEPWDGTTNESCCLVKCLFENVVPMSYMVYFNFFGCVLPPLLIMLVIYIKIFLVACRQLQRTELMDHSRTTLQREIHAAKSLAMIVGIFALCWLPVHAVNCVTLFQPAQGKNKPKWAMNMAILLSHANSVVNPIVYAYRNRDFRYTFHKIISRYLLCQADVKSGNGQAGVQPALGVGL
Procedure, shortened: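 Radioligand competition binding on human A2B receptor membranes, 1 h at room temperature, then filtration through BSA-presoaked GF/C filters and ³H counting by scintillation. Inhibition expressed as % of high control after background subtraction.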

Sequence of Adenosine A2a (ADORA2A) receptor (P29274 whole entry): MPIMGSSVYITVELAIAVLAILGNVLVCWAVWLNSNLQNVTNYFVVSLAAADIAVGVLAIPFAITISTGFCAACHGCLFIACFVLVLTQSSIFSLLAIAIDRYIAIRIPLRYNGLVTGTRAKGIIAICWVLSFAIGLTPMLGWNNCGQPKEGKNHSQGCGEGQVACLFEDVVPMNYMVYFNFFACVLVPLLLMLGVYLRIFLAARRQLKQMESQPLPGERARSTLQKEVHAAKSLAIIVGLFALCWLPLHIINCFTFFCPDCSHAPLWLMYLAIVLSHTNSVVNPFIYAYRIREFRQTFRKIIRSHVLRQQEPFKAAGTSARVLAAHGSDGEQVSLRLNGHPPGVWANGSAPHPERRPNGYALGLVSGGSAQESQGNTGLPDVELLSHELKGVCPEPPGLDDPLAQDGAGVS

| Compound | IC50 [1] [µM] | IC50 [2] [µM] |
| --- | --- | --- |
| Cc1ccc(-c2nc(NC(=O)C3CC3)cn3nc(C(F)F)nc23)o1 [Compound 185, N-[2-(difluoromethyl)-8-(5-methylfuran-2-yl)-[1,2,4]triazolo[1,5-a]pyrazin-6-yl]cyclopropanecarboxamide] | < 0.01 | < 0.01 |
| Cc1ccc(-c2nc(NC(=O)C3CC3)cc3nc(C4COC4)nn23)o1 [Compound 110, N-[5-(5-methylfuran-2-yl)-2-(oxetan-3-yl)-[1,2,4]triazolo[1,5-c]pyrimidin-7-yl]cyclopropanecarboxamide] | < 0.01 | 0.01 to 0.1 |
| COc1ccc(Cc2nc3cc(N)nc(-c4ccc(C)o4)n3n2)cc1 [Compound 3, 2-[(4-methoxyphenyl)methyl]-5-(5-methylfuran-2-yl)-[1,2,4]triazolo[1,5-c]pyrimidin-7-amine] | 0.01 to 0.1 | 0.1 to 1 |
| Cc1nc2c(-c3ccc(C)o3)nc(N)cn2n1 [Compound 168, 2-methyl-8-(5-methylfuran-2-yl)-[1,2,4]triazolo[1,5-a]pyrazin-6-amine] | < 0.01 | 0.01 to 0.1 |
| Cc1nc2c(-c3ccccc3C)nc(N)c(Cl)n2n1 [Compound 182, 5-chloro-2-methyl-8-(2-methylphenyl)-[1,2,4]triazolo[1,5-a]pyrazin-6-amine] | 0.1 to 1 | 0.1 to 1 |
| Cc1ccc(-c2nc(N)c(Cl)c3nc(C(F)(F)F)nn23)o1 [Compound 42, 8-chloro-5-(5-methylfuran-2-yl)-2-(trifluoromethyl)-[1,2,4]triazolo[1,5-c]pyrimidin-7-amine] | < 0.01 | < 0.01 |
| CC(=O)Nc1cc2nc(C)nn2c(-c2ccco2)n1 [Compound 37, N-[5-(furan-2-yl)-2-methyl-[1,2,4]triazolo[1,5-c]pyrimidin-7-yl]acetamide] | < 0.01 | 0.01 to 0.1 |
| CC(C)c1cn2cc(NC(=O)C3CC3)nc(-c3ccco3)c2n1 [Compound 212, N-[8-(furan-2-yl)-2-propan-2-ylimidazo[1,2-a]pyrazin-6-yl]cyclopropanecarboxamide] | < 0.01 | 0.01 to 0.1 |
| CC(=O)Nc1cc2nc(C)nn2c(-c2cccc(C(C)=O)c2)n1 [Compound 93, N-[5-(3-acetylphenyl)-2-methyl-[1,2,4]triazolo[1,5-c]pyrimidin-7-yl]acetamide] | > 1 | > 1 |
| Cc1ccc(-c2nc(NC(=O)C3CC3)cc3nc(C4CCCC4)nn23)o1 [Compound 66, N-[2-cyclopentyl-5-(5-methylfuran-2-yl)-[1,2,4]triazolo[1,5-c]pyrimidin-7-yl]cyclopropanecarboxamide] | < 0.01 | 0.01 to 0.1 |
| Cc1ccc(-c2nc(NC(=O)C3CC3)cn3cc(C(C)C)nc23)o1 [Compound 215, N-[8-(5-methylfuran-2-yl)-2-propan-2-ylimidazo[1,2-a]pyrazin-6-yl]cyclopropanecarboxamide] | < 0.01 | 0.01 to 0.1 |
| CC(C)c1nc2c(-c3ccccc3)nc(N)c(Cl)n2n1 [Compound 177, 5-chloro-8-phenyl-2-propan-2-yl-[1,2,4]triazolo[1,5-a]pyrazin-6-amine] | < 0.01 | < 0.01 |
| CC(=O)Nc1cc2nc(C(F)F)nn2c(-c2ccc(C)o2)n1 [Compound 126, N-[2-(difluoromethyl)-5-(5-methylfuran-2-yl)-[1,2,4]triazolo[1,5-c]pyrimidin-7-yl]acetamide] | < 0.01 | < 0.01 |
| CC(=O)Nc1cc2nc(C)nn2c(-c2cnn(C)c2)n1 [Compound 71, N-[2-methyl-5-(1-methylpyrazol-4-yl)-[1,2,4]triazolo[1,5-c]pyrimidin-7-yl]acetamide] | > 1 | > 1 |
| Cc1nc2cc(NC(=O)C3CC3)nc(-c3ccc(C#N)cc3)n2n1 [Compound 56, N-[5-(4-cyanophenyl)-2-methyl-[1,2,4]triazolo[1,5-c]pyrimidin-7-yl]cyclopropanecarboxamide] | 0.1 to 1 | > 1 |
| CCS(=O)(=O)Nc1cn2cc(C)nc2c(-c2ccco2)n1 [Compound 225, N-[8-(furan-2-yl)-2-methylimidazo[1,2-a]pyrazin-6-yl]ethanesulfonamide] | 0.1 to 1 | 0.1 to 1 |
| Cc1nc2cc(NC(=O)C3CCC3)nc(-c3ccc(C)o3)n2n1 [Compound 10, N-[2-methyl-5-(5-methylfuran-2-yl)-[1,2,4]triazolo[1,5-c]pyrimidin-7-yl]cyclobutanecarboxamide] | < 0.01 | 0.01 to 0.1 |
| Cc1ccc(-c2nc(NC(=O)C3CC3)cn3nc(C(F)(F)F)nc23)o1 [Compound 189, N-[8-(5-methylfuran-2-yl)-2-(trifluoromethyl)-[1,2,4]triazolo[1,5-a]pyrazin-6-yl]cyclopropanecarboxamide] | < 0.01 | < 0.01 |
| Cc1nc2cc(NC(=O)N3CC[C@H](O)C3)nc(-c3ccco3)n2n1 [Compound 107, (3S)-N-[5-(furan-2-yl)-2-methyl-[1,2,4]triazolo[1,5-c]pyrimidin-7-yl]-3-hydroxypyrrolidine-1-carboxamide] | > 1 | > 1 |

| Compound | IC50 [1] [µM] | IC50 [2] [µM] |
| --- | --- | --- |
| Cc1nc2cc(N)nc(-c3ccc(F)c(F)c3)n2n1 [Compound 130, 5-(3,4-difluorophenyl)-2-methyl-[1,2,4]triazolo[1,5-c]pyrimidin-7-amine] | 0.01 to 0.1 | 0.1 to 1 |
| Cc1nc2c(-c3ccc(C)o3)nc(N)c(Cl)n2n1 [Compound 175, 5-chloro-2-methyl-8-(5-methylfuran-2-yl)-[1,2,4]triazolo[1,5-a]pyrazin-6-amine] | < 0.01 | < 0.01 |
| Cc1ccc(-c2nc(NC(=O)C3CC3)cc3nc(-c4ccco4)nn23)o1 [Compound 67, N-[2-(furan-2-yl)-5-(5-methylfuran-2-yl)-[1,2,4]triazolo[1,5-c]pyrimidin-7-yl]cyclopropanecarboxamide] | < 0.01 | 0.01 to 0.1 |
| O=C(Nc1cc2nc(C(F)(F)F)nn2c(-c2ccco2)n1)C1CC1 [Compound 68, N-[5-(furan-2-yl)-2-(trifluoromethyl)-[1,2,4]triazolo[1,5-c]pyrimidin-7-yl]cyclopropanecarboxamide] | < 0.01 | < 0.01 |
| Cc1nc2cc(NC(=O)C3CC3)nc(-c3ccc(C(C)C)o3)n2n1 [Compound 55, N-[2-methyl-5-(5-propan-2-ylfuran-2-yl)-[1,2,4]triazolo[1,5-c]pyrimidin-7-yl]cyclopropanecarboxamide] | < 0.01 | 0.1 to 1 |
| Cc1nc2cc(NC(=O)C3CC3)nc(-c3ccc(C(F)(F)F)o3)n2n1 [Compound 69, N-[2-methyl-5-[5-(trifluoromethyl)furan-2-yl]-[1,2,4]triazolo[1,5-c]pyrimidin-7-yl]cyclopropanecarboxamide] | < 0.01 | 0.01 to 0.1 |
| CNC(=O)Nc1cc2nc(C)nn2c(-c2ccco2)n1 [Compound 108, 1-[5-(furan-2-yl)-2-methyl-[1,2,4]triazolo[1,5-c]pyrimidin-7-yl]-3-methylurea] | < 0.01 | < 0.01 |
| CCNC(=O)Nc1cn2cc(C)nc2c(-c2ccco2)n1 [Compound 223, 1-ethyl-3-[8-(furan-2-yl)-2-methylimidazo[1,2-a]pyrazin-6-yl]urea] | < 0.01 | 0.01 to 0.1 |
| Cc1nc2c(-c3ccco3)nc(NC(=O)C3CC3)cn2n1 [Compound 180, N-[8-(furan-2-yl)-2-methyl-[1,2,4]triazolo[1,5-a]pyrazin-6-yl]cyclopropanecarboxamide] | < 0.01 | < 0.01 |
| Cc1nc2c(Cl)c(N)nc(-c3cccc(F)c3)n2n1 [Compound 146, 8-chloro-5-(3-fluorophenyl)-2-methyl-[1,2,4]triazolo[1,5-c]pyrimidin-7-amine] | < 0.01 | 0.01 to 0.1 |
| Cc1nc2cc(NC(=O)NCC(C)C)nc(-c3ccco3)n2n1 [Compound 156, 1-[5-(furan-2-yl)-2-methyl-[1,2,4]triazolo[1,5-c]pyrimidin-7-yl]-3-(2-methylpropyl)urea] | < 0.01 | 0.01 to 0.1 |
| Cc1cn2c(Cl)c(N)nc(-c3ccc(F)cc3)c2n1 [Compound 202, 5-chloro-8-(4-fluorophenyl)-2-methylimidazo[1,2-a]pyrazin-6-amine] | 0.1 to 1 | 0.1 to 1 |
| Cc1ccc(-c2nc(N)cc3nc(C(F)(F)F)nn23)o1 [Compound 21, 5-(5-methylfuran-2-yl)-2-(trifluoromethyl)-[1,2,4]triazolo[1,5-c]pyrimidin-7-amine] | < 0.01 | 0.01 to 0.1 |
| Cc1nc2cc(N)nc(-c3cccc(F)c3)n2n1 [Compound 142, 5-(3-fluorophenyl)-2-methyl-[1,2,4]triazolo[1,5-c]pyrimidin-7-amine] | 0.01 to 0.1 | 0.1 to 1 |
| Cc1cc2c(nc(-c3ccco3)n3nc(C(F)(F)F)nc23)[nH]1 [Compound 82, 7-(furan-2-yl)-11-methyl-4-(trifluoromethyl)-3,5,6,8,10-pentazatricyclo[7.3.0.0^2,6]dodeca-1(9),2,4,7,11-pentaene] | < 0.01 | < 0.01 |
| Cc1nc2c(-c3ccc(F)cc3)nc(N)c(Br)n2n1 [Compound 171, 5-bromo-8-(4-fluorophenyl)-2-methyl-[1,2,4]triazolo[1,5-a]pyrazin-6-amine] | < 0.01 | 0.01 to 0.1 |
| CC(=O)Nc1cc2nc(C3CCCC3)nn2c(-c2ccc(C)o2)n1 [Compound 65, N-[2-cyclopentyl-5-(5-methylfuran-2-yl)-[1,2,4]triazolo[1,5-c]pyrimidin-7-yl]acetamide] | < 0.01 | 0.01 to 0.1 |
| Cc1nc2cc(NC(=O)C3CN(C)C3)nc(-c3ccc(C)o3)n2n1 [Compound 18, 1-methyl-N-[2-methyl-5-(5-methylfuran-2-yl)-[1,2,4]triazolo[1,5-c]pyrimidin-7-yl]azetidine-3-carboxamide] | < 0.01 | 0.01 to 0.1 |
